One test concerns the target T1, sGC α1/β1 heterodimer (Homo sapiens, UniProt Q02108+Q02153).
T1 construct: expressed in transfected cells; host or cells: CHO-K1 (clone #7, CHO-K1/sGC)
T1 sequence (Q02108 1-690): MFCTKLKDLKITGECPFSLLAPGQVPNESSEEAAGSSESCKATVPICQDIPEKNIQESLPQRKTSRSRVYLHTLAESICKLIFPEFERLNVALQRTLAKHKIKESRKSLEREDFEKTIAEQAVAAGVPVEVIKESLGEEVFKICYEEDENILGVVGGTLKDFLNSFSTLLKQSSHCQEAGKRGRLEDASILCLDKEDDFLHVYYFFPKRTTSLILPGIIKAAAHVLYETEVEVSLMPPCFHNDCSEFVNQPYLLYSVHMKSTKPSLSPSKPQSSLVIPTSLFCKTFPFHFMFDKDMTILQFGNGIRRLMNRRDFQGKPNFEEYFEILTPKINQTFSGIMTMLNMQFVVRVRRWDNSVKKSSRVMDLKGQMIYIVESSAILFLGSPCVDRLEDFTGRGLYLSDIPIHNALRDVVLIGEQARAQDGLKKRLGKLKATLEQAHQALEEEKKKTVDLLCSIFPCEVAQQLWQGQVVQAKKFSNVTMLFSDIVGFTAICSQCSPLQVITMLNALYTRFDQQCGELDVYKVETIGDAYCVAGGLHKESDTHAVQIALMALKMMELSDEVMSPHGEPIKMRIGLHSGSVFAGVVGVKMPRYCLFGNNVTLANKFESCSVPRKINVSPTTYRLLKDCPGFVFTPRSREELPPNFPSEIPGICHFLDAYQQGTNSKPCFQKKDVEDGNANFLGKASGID
T1 sequence (Q02153 1-619): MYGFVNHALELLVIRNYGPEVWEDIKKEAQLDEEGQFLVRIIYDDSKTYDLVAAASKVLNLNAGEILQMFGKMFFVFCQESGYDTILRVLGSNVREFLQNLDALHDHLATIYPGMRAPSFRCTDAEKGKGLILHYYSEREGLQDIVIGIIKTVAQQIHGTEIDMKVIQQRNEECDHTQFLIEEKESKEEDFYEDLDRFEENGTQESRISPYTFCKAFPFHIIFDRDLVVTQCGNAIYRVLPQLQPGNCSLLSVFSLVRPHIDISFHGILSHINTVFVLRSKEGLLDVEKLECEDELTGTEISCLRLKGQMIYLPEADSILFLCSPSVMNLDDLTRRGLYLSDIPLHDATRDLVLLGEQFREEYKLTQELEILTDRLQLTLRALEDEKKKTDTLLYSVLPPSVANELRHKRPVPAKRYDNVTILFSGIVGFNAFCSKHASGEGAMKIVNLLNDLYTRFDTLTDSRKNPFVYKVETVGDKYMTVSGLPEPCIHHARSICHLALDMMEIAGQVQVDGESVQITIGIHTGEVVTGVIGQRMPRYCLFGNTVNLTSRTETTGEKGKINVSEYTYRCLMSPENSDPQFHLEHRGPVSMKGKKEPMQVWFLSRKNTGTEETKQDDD
The test can be described thus: Cell-based sGC functional assay (CASA assay): cGMP generation in CHO-K1/sGC cells, HTRF detection. Conditions: for Emax: CHO-K1, percent activation relative to standard Compound A in CHO-K1/sGC cells, read-out: % Act.; for EC50: inflection point (IP) of cGMP generation in CHO-K1/sGC cells, 4P fit, activity expressed as percentage of Compound A. In a few lines: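 cGMP was quantified by HTRF after 1 hr, 37° C exposure of thawed CHO-K1 cells expressing sGC α1/β1 to compound, with or without 1 μM DETA-NO. IBMX (0.5 mM) blocked cGMP breakdown, and DMSO was 2.5% final. Percent of standard Compound A's maximal cGMP was fitted (4P) for inflection point.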

In test [1] the test system is Spontaneously hypertensive rats (SHR). The test can be described thus: Acute efficacy in spontaneously hypertensive rats (SHR): telemetry blood pressure lowering after a single oral dose. In kind it is in vivo, rat. In a few lines: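 Values are the maximum peak fall in systolic pressure after one oral dose (mpk), computed hourly against baseline from a vehicle dose given the day before. Rats were conscious, male, spontaneously hypertensive, with femoral-aortic telemetry recording 30 s every 10 min, 14 days post-surgery.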

Structures are written as SMILES.

Regarding `CCC1(c2ccc(Cl)cc2)C(=O)Nc2nc(-c3cn4ccnc4c(CCCC(F)(F)F)n3)nc(N)c21` (stereo not drawn) [Example 209B, 4-amino-5-(4-chlorophenyl)-5-ethyl-2-(8-(4,4,4-trifluorobutyl)imidazo[1,2-a]pyrazin-6-yl)-5H-pyrrolo[2,3-d]pyrimidin-6(7H)-one], on sGC α1/β1 heterodimer, the Emax amounted to 111% and the response was half-maximal at 49 nM (EC50). Besides, the “Maximum peak decrease of systolic blood pressure (SBP) in SHR, Cat.” value (from here on “Maximum peak decrease”) in test [1] (P.O. 0.3 mpk) is on record as “B (Category B=SBP in SHRs 20-40 mmHg)”.
The like results for `CC1(c2ccc(F)cn2)C(=O)Nc2nc(-c3cn4ccnc4c(CCCC(F)(F)F)n3)nc(N)c21` (stereo not drawn) [Example 210B, 4-amino-5-(5-fluoropyridin-2-yl)-5-methyl-2-(8-(4,4,4-trifluorobutyl)imidazo[1,2-a]pyrazin-6-yl)-5H-pyrrolo[2,3-d]pyrimidin-6(7H)-one] were, in that order, 97%, 40 nM and “A (Category A=SBP in SHRs<20 mmHg)”.
The like results for `CC1(c2ccc(F)cc2)C(=O)Nc2nc(-c3cn4ccnc4c(CCCC(F)(F)F)n3)nc(N)c21` (stereo not drawn) [Example 211A, 4-amino-5-(4-fluorophenyl)-5-methyl-2-(8-(4,4,4-trifluorobutyl)imidazo[1,2-a]pyrazin-6-yl)-5H-pyrrolo[2,3-d]pyrimidin-6(7H)-one] were, in that order, 122%, 75 nM and “A (Category A=SBP in SHRs<20 mmHg)”.
The like results for `CC1(c2ccc(C(F)(F)F)cn2)C(=O)Nc2nc(-c3cn4ccnc4c(CCCC(F)(F)F)n3)nc(N)c21` (stereo not drawn) [Example 213B, 4-amino-5-methyl-2-(8-(4,4,4-trifluorobutyl)imidazo[1,2-a]pyrazin-6-yl)-5-(5-(trifluoromethyl)pyridin-2-yl)-5H-pyrrolo[2,3-d]pyrimidin-6(7H)-one] were, in that order, 89%, 100 nM and “B (Category B=SBP in SHRs 20-40 mmHg)”.
Regarding `CC1(c2ccc(OC(F)F)cn2)C(=O)Nc2nc(-c3cn4ccnc4c(CCCC(F)(F)F)n3)nc(N)c21` (stereo not drawn) [Example 214A, 4-amino-5-(5-(difluoromethoxy)pyridin-2-yl)-5-methyl-2-(8-(4,4,4-trifluorobutyl)imidazo[1,2-a]pyrazin-6-yl)-5H-pyrrolo[2,3-d]pyrimidin-6(7H)-one], on sGC α1/β1 heterodimer, the Emax was determined as 92% and a half-maximal effect (EC50) was put at 247 nM. In addition, the “Maximum peak decrease” value in test [1] (P.O. 1.0 mpk) is “B (Category B=SBP in SHRs 20-40 mmHg)”.
On to `CCC1(c2ccc(F)cc2)C(=O)Nc2nc(-c3cn4ccnc4c(CCCC(F)(F)F)n3)nc(N)c21` (stereo not drawn) [Example 215A, 4-amino-5-ethyl-5-(4-fluorophenyl)-2-(8-(4,4,4-trifluorobutyl)imidazo[1,2-a]pyrazin-6-yl)-5H-pyrrolo[2,3-d]pyrimidin-6(7H)-one], for which, at sGC α1/β1 heterodimer, the Emax was found to be 107% and the EC50 came to 351 nM. Also, the “Maximum peak decrease” value in test [1] (P.O. 0.3 mpk) was “B (Category B=SBP in SHRs 20-40 mmHg)”.
Turning to `CCOc1ccc(C2(C)C(=O)Nc3nc(-c4cn5ccnc5c(CCCC(F)(F)F)n4)nc(N)c32)nc1` (stereo not drawn) [Example 216A, 4-amino-5-(5-ethoxypyridin-2-yl)-5-methyl-2-(8-(4,4,4-trifluorobutyl)imidazo[1,2-a]pyrazin-6-yl)-5H-pyrrolo[2,3-d]pyrimidin-6(7H)-one], at sGC α1/β1 heterodimer, the Emax turned out to be 77% and the midpoint of the response, the EC50, lay at 146 nM. Moreover, the “Maximum peak decrease” value in test [1] (P.O. 1.0 mpk) is recorded as “B (Category B=SBP in SHRs 20-40 mmHg)”.
For `Nc1nc(-c2cn3ccnc3c(CCCC(F)(F)F)n2)nc2c1C(c1ccc(F)cn1)(C1CC1)C(=O)N2` (stereo not drawn) [Example 217A, 4-amino-5-cyclopropyl-5-(5-fluoropyridin-2-yl)-2-(8-(4,4,4-trifluorobutyl)imidazo[1,2-a]pyrazin-6-yl)-5H-pyrrolo[2,3-d]pyrimidin-6(7H)-one], in that order: 82%, 288 nM and “C (Category C=SBP in SHRs>40 mmHg)”.
The like results for `Nc1nc(-c2cn3ccnc3c(CCCC(F)(F)F)n2)nc2c1C(c1ccc(Cl)cn1)(C1CC1)C(=O)N2` (stereo not drawn) [Example 218B, 4-amino-5-(5-chloropyridin-2-yl)-5-cyclopropyl-2-(8-(4,4,4-trifluorobutyl)imidazo[1,2-a]pyrazin-6-yl)-5H-pyrrolo[2,3-d]pyrimidin-6(7H)-one] were, in that order, 126%, 253 nM and “C (Category C=SBP in SHRs>40 mmHg)”.
The like results for `Nc1nc(-c2cn3ccnc3c(CCCC(F)(F)F)n2)nc2c1C(c1ccc(C(F)(F)F)cn1)(C1CC1)C(=O)N2` (stereo not drawn) [Example 219A, 4-amino-5-cyclopropyl-2-(8-(4,4,4-trifluorobutyl)imidazo[1,2-a]pyrazin-6-yl)-5-(5-(trifluoromethyl)pyridin-2-yl)-5H-pyrrolo[2,3-d]pyrimidin-6(7H)-one] were, in that order, 124%, 53 nM and “B (Category B=SBP in SHRs 20-40 mmHg)”.
On to `CC1(c2ncccn2)C(=O)Nc2nc(-c3cn4ccnc4c(CCC(F)(F)C(F)(F)F)n3)nc(N)c21` (stereo not drawn) [Example 220B, 4-amino-5-methyl-2-(8-(3,3,4,4,4-pentafluorobutyl)imidazo [1,2-a]pyrazin-6-yl)-5-(pyrimidin-2-yl)-5H-pyrrolo[2,3-d]pyrimidin-6(7H)-one], for which, at sGC α1/β1 heterodimer, the Emax amounted to 100% and the EC50 stood at 409 nM. For the same molecule, the “Maximum peak decrease” value in test [1] (P.O. 3.0 mpk) was “A (Category A=SBP in SHRs<20 mmHg)”.
Take `Cc1ccc(C2(C)C(=O)Nc3nc(-c4cn5ccnc5c(CCC(F)(F)C(F)(F)F)n4)nc(N)c32)cn1` (stereo not drawn) [Example 221A, 4-amino-5-methyl-5-(6-methylpyridin-3-yl)-2-(8-(3,3,4,4,4-pentafluorobutyl)imidazo [1,2-a]pyrazin-6-yl)-5H-pyrrolo[2,3-d]pyrimidin-6(7H)-one]: on sGC α1/β1 heterodimer, the Emax was 107% and the EC50 amounted to 496 nM. In test [1] (P.O. 1.0 mpk), the “Maximum peak decrease” value is recorded as “A (Category A=SBP in SHRs<20 mmHg)”.
`Nc1nc(-c2cn3ccnc3c(CCC(F)(F)C(F)(F)F)n2)nc2c1C(c1ccc(F)cn1)(C1CC1)C(=O)N2` (stereo not drawn) [Example 223A, 4-amino-5-cyclopropyl-5-(5-fluoropyridin-2-yl)-2-(8-(3,3,4,4,4-pentafluorobutyl)imidazo [1,2-a]pyrazin-6-yl)-5H-pyrrolo[2,3-d]pyrimidin-6(7H)-one]: on sGC α1/β1 heterodimer, the Emax was 84% and the EC50 is 177 nM. Besides, the “Maximum peak decrease” value in test [1] (P.O. 1.0 mpk) is “B (Category B=SBP in SHRs 20-40 mmHg)”.
For `CC(C)c1ccc(C2(C)C(=O)Nc3nc(-c4cn5ccnc5c(CCC(F)(F)C(F)(F)F)n4)nc(N)c32)nc1` (stereo not drawn) [Example 225A, 4-amino-5-(5-isopropylpyridin-2-yl)-5-methyl-2-(8-(3,3,4,4,4-pentafluorobutyl)imidazo [1,2-a]pyrazin-6-yl)-5H-pyrrolo[2,3-d]pyrimidin-6(7H)-one], in that order: 82%, 166 nM and “A (Category A=SBP in SHRs<20 mmHg)”.

Values taken from patent publication US9796733B2, “Imidazo-pyrazine derivatives useful as soluble guanylate cyclase activators” (Merck Sharp & Dohme Corp., priority 2014, dated 2017).
